The source of these data is paper PMC6669608, “Evaluation of Oxasqualenoids from the Red Alga Laurencia viridis against Acanthamoeba” (Marine Drugs, 2019).

The test system of data set [1] is Acanthamoeba castellanii Neff trophozoites. Briefly: In vitro activity against Acanthamoeba trophozoites (alamarBlue colorimetric assay). In kind it is cell-based, Acanthamoeba castellanii Neff (ATCC 30010). The note with it: trophozoites, 96 h, 26 °C, read-out: IC50 against Acanthamoeba castellanii Neff. As for the experimental part: (§1) The antiamoeboid activity of the compounds was evaluated against Acanthamoeba castellanii Neff (ATCC 30010) type strain from the American Type Culture Collection. This strain was axenically incubated in PYG medium (0.75% (w/v) proteose Peptone, 0.75% (w/v) Yeast extract, and 1.5% (w/v) Glucose) supplemented with 10 µg/mL gentamicin (Sigma-Aldrich, Madrid, Spain). As for the cytotoxicity assays, murine macrophages J774A.1 (ATCC TIB-67) were used, cultivated in DMEM medium (Dulbecco’s modified eagle medium, Gibco Life Technologies, California, USA) with 10% supplement of fetal bovine serum (FBS) and 10 µg/mL gentamicin at 37 °C in a 5% CO2 incubator.
The in vitro activities of the different compounds of Laurencia were evaluated using a previously developed colorimetric assay based on the alamarBlue™ Cell Viability Reagent assay (Life Technologies, Barcelona, Spain). Briefly, 50 µL of 5 × 10⁴ trophozoites/mL were seeded onto a 96-well microtiter plate. After 15 min, the adherence of the cells to the plate bottom was confirmed by the use of the inverted microscope Leica DMIL (Leica, Wetzlar, Germany). Furthermore, 50 µL of serial dilutions of each compound was added to the 96-well microtiter plate. Finally, alamarBlue™ was placed into each well at 10% of the final volume and incubated at 26 °C with slight agitation. After 96 h, the fluorescence was measured with EnSpire Multimode Plate Reader (Perkin Elmer, Madrid, Spain) at a wavelength of 570/585 nm. The inhibitory concentration to inhibit the growth of 50% of the parasites (IC50) was calculated through nonlinear regression analysis with 95% confidence limits using the software Sigma Plot 12.0 (Systat Software Inc., London, UK). The experiments were performed three times each, allowing for standard deviation.
On the technique in general: Alamar Blue is a resazurin reagent that responds to reducing activity.

A short description of data set [2]: Cytotoxicity assay (alamarBlue). The data set is classed as cell-based, murine. Conditions: mouse; 24 h, 37 °C; read-out: CC50, toxicity against murine macrophage J774.A1. How it is done:
as §1
The cytotoxicity of the tested compounds was determined in vitro with murine macrophages (J774A.1). For this assay, the DMEM culture medium was changed from RPMI without phenol red (Roswell Park Memorial Institute, Thermo Fisher Scientific Inc., Waltham, MA, USA) to L-Glutamine supplemented with 10% (v/v) inactivated FBS and with 10 µg/mL gentamicin. In this assay, the macrophages were counted and seeded into a 96-well microtiter plate, adding 50 µL to each well from a stock solution of 2 × 10^5 cells/mL. Cells were then left to adhere for 15 min to the plate bottom and were checked with the inverted microscope Leica DMIL. After that, 50 µL of a serial dilution of the compounds was added to the 96-well microtiter plate. Finally, alamarBlue™ was added into each well at an amount equal to 10% of the final volume and incubated at 37 °C in the presence of CO2 at 5% for 24 h. After this period of time, as in the in vitro anti-Acanthamoeba assay, the fluorescence was determined with an EnSpire Multimode Plate Reader (PerkinElmer, Inc, Waltham, MA, USA) at a wavelength of 570/585 nm. The cytotoxicity concentration to inhibit the growth of 50% of murine macrophages (CC50) was calculated through nonlinear regression analysis with 95% confidence limits using the software Sigma Plot 12.0 (Systat Software, Inc, San Jose, CA 95110 USA). Experiments were performed three times each, allowing for standard deviation.

As to `C=C(CC[C@H](O)[C@@]1(C)CC[C@H](C(C)(C)O)O1)[C@H]1CC[C@H]2O[C@@H]([C@]3(C)CC[C@@H](Br)C(C)(C)O3)CC[C@]2(C)O1` [Compound 1, dehydrothyrsiferol], the IC50 (in general, the concentration at which inhibition is half-maximal) in data set [1] is 12.8 ± 1.38 µM. In data set [2], the CC50 (usually the concentration that lowers cell viability or growth by half) was found to be 28.8 ± 3.1 µM.
